Where “and” joins values, the source holds several entries; their conditions need not be identical. Equal values may be shown once. Read-outs that look alike come from different tables or passages of the source. Marks after values point to notes of the source that are not given here.
Key:
[1] = test system: rats; settings: rat, in vivo
Description: (§1) A group of each 5 male and female rats was dosed once daily with the indicated compounds (see Table 9, below for compounds, applied doses and administration details) over 28 days.
(§2) Each dose group in the studies consisted of five rats per sex. Additional groups of each 5 male and female animals served as controls. Before starting the treatment period, animals, which were 62-64 days old when supplied, were acclimatized to the housing and environmental conditions for 7 days. All animals of the animal population were kept under the same constant temperature (20-24±3° C.) and the same constant humidity (30-70%). The animals of the animal population were fed ad libitum. The food to be used was essentially free of chemical or microbial contaminants. Drinking water was also offered ad libitum. […] The illumination period was 12 hours light followed by 12 hours darkness (12 hours light, from 6:00 to 18:00, and 12 hours darkness, from 18:00 to 6:00). […] The test substances (compounds in Table 9 were dosed and administered as described in the table above.
(§3) In the morning of day 7, 14, and 28, blood was taken from the retroorbital venous plexus from fasted anaesthetized animals. From each animal, 1 ml of blood was collected with EDTA as anticoagulant. The samples were centrifuged for generation of plasma. All plasma samples were covered with a N2 atmosphere and then stored at −80° C. until analysis.
(§4) For mass spectrometry-based metabolite profiling analyses plasma samples were extracted and a polar and a non-polar (lipid) fraction was obtained. For GC-MS analysis, the non-polar fraction was treated with methanol under acidic conditions to yield the fatty acid methyl esters. Both fractions were further derivatised with O-methyl-hydroxyamine hydrochloride and pyridine to convert Oxo-groups to O-methyloximes and subsequently with a silylating agent before analysis. In LC-MS analysis, both fractions were reconstituted in appropriate solvent mixtures. HPLC was performed by gradient elution on reversed phase separation columns.
(§5) Steroids and their metabolites were measured by online SPE-LC-MS (Solid phase extraction-LC-MS).
(§6) Following comprehensive analytical validation steps, the data for each analyte were normalized against data from pool samples. These samples were run in parallel through the whole process to account for process variability. The significance of treatment group values specific for sex, treatment duration and metabolite was determined by comparing means of the treated groups to the means of the respective untreated control groups using WELCH-test and quantified with treatment ratios versus control and p-values.

[2] = test system: rats; test: 28-day repeated dose study in rats with mass spectrometry-based plasma metabolite profiling (GC-MS, LC-MS, SPE-LC-MS); treatment ratios versus control
Description: as §1, §2, §3, §4, §5, §6

[3] = plasma, male rats, day 28, high dose, Table 8a direct tubular effect
[4] = plasma, male rats, day 28, high dose, Table 8b direct tubular effect
[5] = plasma, male rats, day 7, high dose, Table 6b ACE inhibitor induced like toxicity
[6] = plasma, male rats, day 7, high dose, Table 1d diuretic effect
[7] = plasma, male rats, day 14, high dose, Table 1c diuretic effect
[8] = plasma, male rats, day 14, high dose, Table 6b ACE inhibitor induced like toxicity
[9] = plasma, male rats, day 14, high dose, Table 1d diuretic effect
[10] = plasma, male rats, day 28, high dose, Table 6b ACE inhibitor induced like toxicity
[11] = plasma, male rats, day 28, high dose, Table 1d diuretic effect

## Cn1c(=O)c2c(ncn2C)n(C)c1=O [Caffeine]
[1]
  Choline plasmalogen No 03, treatment ratio versus control: 1.25 *
  Histidine, treatment ratio versus control: 1.29 *
  Pantothenic acid, treatment ratio versus control: 1.23 *
  Threonic acid, treatment ratio versus control: 1.46 *
  Threonine, treatment ratio versus control: 1.58 *
  Valine, treatment ratio versus control: 1.15 *
  trans-4-Hydroxyproline, treatment ratio versus control: 1.23 *
[2]; rat, in vivo
  18-Hydroxy-11-deoxycorticosterone, treatment ratio versus control: 0.38 *
  Choline plasmalogen No 03, treatment ratio versus control: 1.55 * and 1.56 *
  Creatinine, treatment ratio versus control: 0.84 *
  Glutamate, treatment ratio versus control: 0.55 * and 0.65 * and 0.7 *
  Glycine, treatment ratio versus control: 1.5 *
  Hippuric acid, treatment ratio versus control: 0.38 *
  Lysophosphatidylcholine (C20:4), treatment ratio versus control: 0.85 * and 0.87 * and 0.89 *
  Malate, treatment ratio versus control: 0.61 * and 0.55 * and 0.54 *
  Proline, treatment ratio versus control: 1.23
  Sphingomyelin (d18:2, C16:0), treatment ratio versus control: 2.34*
  Threonine, treatment ratio versus control: 1.2 * and 1.59 *

## Oc1ccc(O)cc1 [Hydroquinone]
[1]
  Leucine, treatment ratio versus control: 1.23 *
  Lysophosphatidylethanolamine (C22:0), treatment ratio versus control: 1.26 *
  Ornithine, treatment ratio versus control: 1.24 *
[2]; [3]
  Glycerol-3-phosphate, polar fraction, treatment ratio versus control: 1.64 *
  Isoleucine, treatment ratio versus control: 1.2 *
  TAG No 02, treatment ratio versus control: 1.91 *
  Threonine, treatment ratio versus control: 1.03
[2]; [4]
  14-Methylhexadecanoic acid, treatment ratio versus control: 0.81
  16-Methylheptadecanoic acid, treatment ratio versus control: 0.76
  18-Hydroxy-11-deoxycorticosterone, treatment ratio versus control: 0.23 *
  Citrate, treatment ratio versus control: 0.82 *
  DAG (C18:1, C18:2), treatment ratio versus control: 0.43 *
  Elaidic acid (C18:trans[9]1), treatment ratio versus control: 0.84
  Isopalmitic acid (C16:0), treatment ratio versus control: 0.62
  Ketoleucine, treatment ratio versus control: 0.75 *
  Linolenic acid (C18:cis[9,12,15]3), treatment ratio versus control: 0.56 *
  Lysophosphatidylcholine (C18:0), treatment ratio versus control: 0.99 *
  Oleic acid (C18:cis[9]1), treatment ratio versus control: 0.75 *
  Palmitoleic acid (C16:cis[9]1), treatment ratio versus control: 0.76 *
  TAG (C16:0, C16:1), treatment ratio versus control: 0.4 *
  trans-4-Hydroxyproline, treatment ratio versus control: 0.87 *

## NCCCC[C@H](N[C@@H](CCc1ccccc1)C(=O)O)C(=O)N1CCC[C@H]1C(=O)O [Lisinopril]
[1]
  1,5-Anhydrosorbitol, treatment ratio versus control: 1.22 *
[2]; plasma, male rats, day 7, high dose, Table 1c diuretic effect
  Threonine, treatment ratio versus control: 0.99^
[2]; plasma, male rats, day 7, high dose, Table 6a ACE inhibitor induced like toxicity
  Lysine, treatment ratio versus control: 0.92^
[2]; [5]
  Cytosine, treatment ratio versus control: 0.97^
  Glutamate, treatment ratio versus control: 0.94 *
[2]; [6]
  Glutamate, treatment ratio versus control: 0.94 *
  Lysophosphatidylcholine (C20:4), treatment ratio versus control: 0.97^
  Malate, treatment ratio versus control: 0.75 *
[2]; [7]
  Ceramide (d18:1, C24:0), treatment ratio versus control: 1.19 *
  Choline plasmalogen No 03, treatment ratio versus control: 1.1 *
  Sphingomyelin (d18:2, C16:0), treatment ratio versus control: 1.38 *
[2]; plasma, male rats, day 14, high dose, Table 6a ACE inhibitor induced like toxicity
  1,5-Anhydrosorbitol, treatment ratio versus control: 1.2 *
[2]; [8]
  Cytosine, treatment ratio versus control: 0.89 *
  Glutamate, treatment ratio versus control: 0.85 *
[2]; [9]
  Glutamate, treatment ratio versus control: 0.85 *
  Lysophosphatidylcholine (C20:4), treatment ratio versus control: 0.94^
  Malate, treatment ratio versus control: 0.6 *
[2]; plasma, male rats, day 28, high dose, Table 6a ACE inhibitor induced like toxicity
  1,5-Anhydrosorbitol, treatment ratio versus control: 1.53 *
[2]; [10]
  Cytosine, treatment ratio versus control: 1
  Glutamate, treatment ratio versus control: 0.87 *
[2]; [11]
  Glutamate, treatment ratio versus control: 0.87 *
  Lysophosphatidylcholine (C20:4), treatment ratio versus control: 0.9 *
  Malate, treatment ratio versus control: 0.65 *

Reference: US20150011423A1, “MEANS AND METHODS FOR ASSESSING KIDNEY TOXICITY” (BASF SE, priority 2011, published 2015)
